Measurements: PMC9146215, “Design of D-Amino Acids SARS-CoV-2 Main Protease Inhibitors Using the Cationic Peptide from Rattlesnake Venom as a Scaffold” (Pharmaceuticals, 2022)
Positions of bridges follow the written chain, without caps; N, C: chain ends. Non-standard residues stand in square brackets, D forms with d. Residues, ends and D or L forms follow the SMILES beside them. No end group written: not given here.

What was measured:
SARS-CoV-2 3CL^pro [1] = biological target: T1, SARS-CoV-2 3CL^pro (Severe acute respiratory syndrome coronavirus 2, UniProt P0DTD1); experiment: SARS-CoV-2 3CLpro fluorogenic (DABCYL/EDANS substrate) inhibition assay; format: biochemical; settings: 0.5 µM 3CLpro, n = 3; for IC50: 30 min pre-incubation with inhibitor at RT, 50 µM substrate, 37 °C, pH 7.2, 1 mM TCEP, mean ± SD, read-out: IC50 [µM] ± STD
T1 construct: SARS-CoV-2 3CL^pro (Uniprot entry: P0DTD1, virus strain: hCoV-19/Wuhan/WIV04/2019) was cloned, expressed, and purified; GST (cleaved yes); made in house; host or cells: E. coli Lemo21 (DE3)
Protocol: The SARS-CoV-2 3CL^pro activity assay was performed using DABCYL-KTSAVLQ/SGFRKME-EDANS (Bachem, Switzerland) as substrate.
SARS-CoV-2 3CL^pro activity assay was performed using a fluorogenic substrate DABCYL-KTSAVLQ↓SGFRKME-EDANS (Bachem, Bubendorf, Switzerland) in a buffer containing 20 mM Tris pH 7.2, 200 mM NaCl, 1 mM EDTA, and 1 mM TCEP [31, 32, 33, 34]. The reaction mixture was pipetted in a Corning 96-well plate (Merck, Darmstadt, Germany) containing 0.5 µM protein. The assay was initiated with the addition of the substrate at a final concentration of 50 µM. The fluorescence intensities were measured at 60 s intervals over 30 min using an Infinite 200 PRO plate reader (Tecan, Männedorf, Switzerland), and the temperature was set to 37 °C. The excitation and emission wavelengths were 360 and 460 nm, respectively.
The activity assay described above investigated the inhibition of SARS-CoV-2 3CL^pro activity by Cro, L- and D-CDPs. 30 µM of the peptides was used for a preliminary screening test.
For the final inhibition assays, 0.5 µM of the protein was mixed with 0–300 µM Cro, 0–150 µM L-CDPs, and 0–125 µM D-CDPs and subsequently incubated for 30 min at RT. An additional experiment was conducted where the substrate and the inhibitor were added simultaneously (without incubation). When the substrate with a final concentration of 50 µM was added to the mixture, the fluorescence intensities were measured at 60 s intervals over 30 min using an Infinite 200 PRO plate reader (Tecan, Männedorf, Switzerland). The temperature was set to 37 °C, and the excitation and emission wavelengths were 360 and 460 nm, respectively. Inhibition assays were performed in triplicate.
The IC50 value was calculated by plotting the initial velocity against various concentrations of the combined molecules using a dose-response curve in GraphPad Prism5 software […]. Data are presented as mean ± SD.

SARS-CoV-2 3CL^pro [2] = biological target: T1, SARS-CoV-2 3CL^pro; experiment: Determination of inhibition mode (Lineweaver-Burk plot); format: biochemical; settings: 0.5 µM 3CLpro, 30 min incubation at RT, triplicate
Protocol: The inhibition mode was determined using different final concentrations of the inhibitors and substrate. […] The remaining L-peptides were not tested.
Briefly, 0.5 µM SARS-CoV-2 3CL^pro was incubated with the inhibitor, in various concentrations, for 30 min at RT. Subsequently, the reaction was initiated by adding the corresponding concentration series of the substrate. The data were analysed using a Lineweaver-Burk plot; therefore, the reciprocal of velocity (1/V) vs the reciprocal of the substrate concentration (1/[S]) was compared. All measurements were performed in triplicate, and data are presented as mean ± SD.

[3] = L- and D-peptide stability against pepsin hydrolysis (simulated gastric fluid); format: in vitro ADME; settings: simulated gastric fluid with pepsin (3.2 mg/mL); simulated gastric fluid: 2 mg/mL NaCl, 3.2 mg/mL pepsin, 80 mM HCl, pH 1.0; 37 °C, 500 rpm; after 8 h; RP-HPLC C18, 214 nm; read-out: Peptide amount remaining after pepsin incubation
Protocol: (§1) As protein hydrolysis is initiated by pepsin, we have performed a hydrolysis experiment simulating gastric fluid for both selected L- and D-peptides. After incubation over 4 and 8 h, the sample was analysed using RP-HPLC (Supplementary Figure S8).
(§2) The preparation of the pepsin solution was performed as described before. The experiment solution contains 2 mg/mL NaCl, 3.2 mg/mL pepsin, and 80 mM HCL at a pH 1.0. This solution simulated gastric fluid. […] Samples were taken after 0 h, 4 h, and 8 h. The samples were analysed by reversed-phase high-performance liquid chromatography (RP-HPLC). The RP-HPLC system (Agilent Technologies, Santa Clara, CA, USA; 1200 series) consisted of a manual injector, quaternary pump, a thermostatted column compartment, and a variable wavelength detector. Chromatography was performed with a C18 column (Agilent Technologies, Santa Clara, CA, USA; ZORBAX 300SB-C18 5 µm, 4.6 × 250 mm) at 25 °C and 214 nm with a flow rate of 1 mL/min. The sample injection volume was 20 µL. Chromatograms were recorded and analysed with the Agilent software ChemStation (G2175BA; B03.01). Mobile phases were acetonitrile (A) and water (B), each supplemented with 0.15% trifluoroacetic acid (TFA) (v/v). The samples were measured isocratically at 10% solvent A for 30 min.

SARS-CoV-2 3CL^pro [4] = biological target: T1, SARS-CoV-2 3CL^pro; experiment: Inhibitor stability over 24 h (24 h inhibition experiment); format: biochemical; settings: 0.5 µM 3CLpro with 5 µM peptide, 1/2 h to 24 h at RT, triplicate
Protocol: Briefly, 0.5 µM SARS-CoV-2 3CL^pro was incubated with 5 µM of the peptide and incubated for 1/2 h, 1 h, 2 h, 3 h, 4 h, 5 h, and 24 h at RT. The control was performed with the 3CL^pro in the absence of the peptide and measured together after each time point. Subsequently, the reaction was initiated by the addition of the substrate. All measurements were performed in triplicate, and data are presented as mean ± SD.

SARS-CoV-2 3CL^pro [5] = biological target: T1, SARS-CoV-2 3CL^pro; experiment: Detergent-based (Triton X-100) control assay for aggregation-based promiscuous inhibition; format: biochemical; settings: 0.001%, 0.01%, 0.1% Triton X-100; four peptide concentrations; triplicate
Protocol: A detergent-based control assay was performed to exclude inhibitors that possibly act as aggregators of the 3CL^pro by adding 0.001%, 0.01%, and 0.1% of Triton X-100 to the reaction. […] All measurements were performed in triplicate, and data are presented as mean ± SD.

[6] = tested on: all cell types investigated; settings: rapid translocation efficiency; cited from earlier work
Text: These properties were mainly determined by the overall positive net surface charge distribution of crotamine. Characterised as a novel cell-penetrating polypeptide (CPP) nanocarrier, Cro has biotechnological ...

pepsin = pepsin (Sus scrofa, UniProt P00791); experiment: L- and D-peptide stability against pepsin hydrolysis (simulated gastric fluid); format: in vitro ADME; settings: simulated gastric fluid: 3.2 mg/mL pepsin, pH 1.0, 37 °C, 4 and 8 h; RP-HPLC
Chain of pepsin (P00791 60-385): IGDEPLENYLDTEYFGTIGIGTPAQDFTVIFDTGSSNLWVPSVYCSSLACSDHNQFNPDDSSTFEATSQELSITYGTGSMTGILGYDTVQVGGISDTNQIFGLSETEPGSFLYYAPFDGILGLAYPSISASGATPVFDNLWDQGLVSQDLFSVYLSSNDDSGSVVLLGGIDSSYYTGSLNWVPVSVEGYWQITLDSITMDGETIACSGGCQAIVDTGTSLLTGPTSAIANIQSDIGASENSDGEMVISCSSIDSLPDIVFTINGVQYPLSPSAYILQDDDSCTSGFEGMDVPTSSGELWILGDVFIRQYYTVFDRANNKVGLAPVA
Protocol: as §1, §2

Vero CCL-81 cells = experiment: MTT cell viability assay; format: cell-based, African green monkey; settings: n = 3
Protocol: Therefore, Vero cells were cultivated in DMEM medium supplemented with 2% fetal calf serum (FCS) and 1% penicillin/streptomycin. A total of 2000 cells per well in a volume of 100 µL were seeded on flat-bottomed 96-well plates (VWR, Radnor, USA) and incubated in a 95% humidified atmosphere with 5% CO2 at 37 °C for 24 h. Subsequently, the cells were treated with 0.2, 1, 5, 10, 25, 50, and 98 µM of each molecule at 37 °C with 5% CO2 for 24 h.
According to the manufacturer’s instructions, cell viability was measured using the Cell Proliferation Kit I (Roche, Basel, Switzerland) in a 3-fold determination. The absorbance of the formazan product was determined by measuring the absorption at 570 nm and subtracted by the absorbance at 690 nm in a microplate reader (BMG Labtech, Ortenberg, Germany). The results were normalised to the mean value of cells treated with medium only. As a […] control for cytotoxicity, 0.1% Triton X-100 diluted in the medium was used. Cell viability was calculated according to Equation (2):(T/C) × 100%(2) where T and C represented the optical density of the treated well and control groups, respectively.

[7] = tested on: SARS-CoV-2 B1.1 isolate (NRW-42) in Vero cells; format: cell-based

COC(=O)[C@H](CCCCN)NC(=O)[C@H](CCCCN)NC(=O)[C@H](CS)NC(=O)[C@H](CS)NC(=O)[C@H](CCCCN)NC(=O)[C@H](Cc1c[nH]c2ccccc12)NC(=O)[C@H](CCCNC(=N)N)NC(=O)[C@H](Cc1c[nH]c2ccccc12)NC(=O)[C@H](CCCNC(=N)N)NC(=O)[C@H](CS)NC(=O)[C@H](CC(=O)O)NC(=O)[C@H](CCSC)NC(=O)[C@H](CCCCN)NC(C)=O [L-CDP1] (Ac-KMDCRWRWKCCKK-OMe)
Concentration giving 100% protease inhibition (SARS-CoV-2 3CL^pro [1]; dose-dependent study): 30 µM | Inhibition Type (SARS-CoV-2 3CL^pro [2]): Competitive | remaining at 8 h [3]: ~50% | Inhibition of SARS-CoV-2 3CLpro over 24 h (stability of inhibitor) (SARS-CoV-2 3CL^pro [4]): constant inhibition | Aggregation-based inhibition (inhibition diminished by detergent) (SARS-CoV-2 3CL^pro [5]): not observed

YKQCHKKGGHCFPKEKICLPPSSDFGKMDCRWRWKCCKKGSG (disulfide 4-36, 11-30, 18-37) [Crotamine]
IC50 (SARS-CoV-2 3CL^pro [1]): 40 ± 3.1 µM | Time for translocation into cells [6]: ≤ 5 min

COC(=O)[C@H](CCCCN)NC(=O)[C@H](CCCCN)NC(=O)[C@H](CO)NC(=O)[C@H](CO)NC(=O)[C@H](CCCCN)NC(=O)[C@H](Cc1c[nH]c2ccccc12)NC(=O)[C@H](CCCNC(=N)N)NC(=O)[C@H](Cc1c[nH]c2ccccc12)NC(=O)[C@H](CCCNC(=N)N)NC(=O)[C@H](CS)NC(=O)[C@H](CC(=O)O)NC(=O)[C@H](CCSC)NC(=O)[C@H](CCCCN)NC(C)=O [L-CDP3] (Ac-KMDCRWRWKSSKK-OMe)
IC50 (SARS-CoV-2 3CL^pro [1]): 8.5 ± 1 µM

COC(=O)[C@@H](CCCCN)NC(=O)[C@@H](CCCCN)NC(=O)[C@@H](CS)NC(=O)[C@@H](CS)NC(=O)[C@@H](CCCCN)NC(=O)[C@@H](Cc1c[nH]c2ccccc12)NC(=O)[C@@H](CCCNC(=N)N)NC(=O)[C@@H](Cc1c[nH]c2ccccc12)NC(=O)[C@@H](CCCNC(=N)N)NC(=O)[C@@H](CS)NC(=O)[C@@H](CC(=O)O)NC(=O)[C@@H](CCSC)NC(=O)[C@@H](CCCCN)NC(C)=O [D-CDP1] (Ac-[dK][dM][dD][dC][dR][dW][dR][dW][dK][dC][dC][dK][dK]-OMe)
Inhibition Type (SARS-CoV-2 3CL^pro [2]): Competitive | Stability against pepsin hydrolysis (in words) (pepsin): stable against pepsin hydrolysis | Inhibition of SARS-CoV-2 3CLpro over 24 h (stability of inhibitor) (SARS-CoV-2 3CL^pro [4]): constant inhibition | Aggregation-based inhibition (inhibition diminished by detergent) (SARS-CoV-2 3CL^pro [5]): not observed | Cytotoxic effect at the calculated IC50 concentrations (Vero CCL-81 cells): no cytotoxic effect | Viral RNA in cell culture supernatant [7]: significant decrease in viral RNA
